From ChEMBL document CHEMBL4177573 (Bioorg Med Chem, 2017)
Square brackets hold non-standard residues; d marks the D form. Peptide text beside a SMILES is read from it. 4Pal = N[C@@H](Cc1ccncc1)C(=O)O; Cha = N[C@@H](CC1CCCCC1)C(=O)O; Aib = CC(C)(N)C(=O)O

How the values were obtained:
[1] = biological target: T1, Neuropeptide Y receptor type 2 (Homo sapiens, UniProt P49146); assay: Agonist activity at human neuropeptide Y2 receptor expressed in CHO cell membranes assessed as stimulation of [35S]GTPgammaS binding incubated for 120 mins by liquid scintillation counting method; assay type: functional
T1 sequence (P49146 whole entry): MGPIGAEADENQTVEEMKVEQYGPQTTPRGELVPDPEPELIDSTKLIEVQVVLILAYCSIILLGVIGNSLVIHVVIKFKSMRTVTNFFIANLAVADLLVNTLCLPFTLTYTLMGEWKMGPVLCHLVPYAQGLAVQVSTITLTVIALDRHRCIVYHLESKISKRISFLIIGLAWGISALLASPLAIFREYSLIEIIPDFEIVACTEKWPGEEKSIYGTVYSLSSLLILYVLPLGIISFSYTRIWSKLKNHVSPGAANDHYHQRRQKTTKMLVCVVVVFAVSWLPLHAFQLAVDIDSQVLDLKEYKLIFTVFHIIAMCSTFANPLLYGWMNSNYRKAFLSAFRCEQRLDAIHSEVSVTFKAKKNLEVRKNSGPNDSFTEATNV

[2] = biological target: T1, Neuropeptide Y receptor type 2; assay: Displacement of [125I]-PYY from human neuropeptide Y2 receptor expressed in CHO cell membranes incubated for 60 mins by TopCount based method
Mus musculus [3] = assay: Anorectic activity in C57BL/6J mouse assessed as inhibition of food intake at 0.3 mg/kg/day, sc dosed as […] and measured after 24 hrs; assay type: functional
Mus musculus [4] = assay: Anorectic activity in C57BL/6J mouse assessed as inhibition of food intake at 0.3 mg/kg/day, sc dosed as […] and measured after 12 hrs; assay type: functional
Mus musculus [5] = assay: Anorectic activity in C57BL/6J mouse assessed as inhibition of food intake at 0.03 mg/kg/day, sc for 3 days dosed as continuous administration by infusion using osmotic pump; assay type: functional; conditions: 72 h
Mus musculus [6] = assay: Anorectic activity in C57BL/6J mouse assessed as inhibition of food intake at 0.1 mg/kg/day, sc for 3 days dosed as continuous administration by infusion using osmotic pump; assay type: functional; conditions: 72 h

Row | Structure (SMILES) | EC50 [1] [nM] | IC50 [2] [nM] | inhibition in vivo at 0.3 mg/kg/day (Mus musculus [3]) [%] | inhibition in vivo at 0.3 mg/kg/day (Mus musculus [4]) [%] | inhibition in vivo at 0.03 mg/kg/day (Mus musculus [5]) [%] | inhibition in vivo at 0.1 mg/kg/day (Mus musculus [6]) [%]
1 | CC(C)C[C@H](NC(=O)[C@H](CC(N)=O)NC(=O)[C@H](CC1CCCCC1)NC(=O)[C@H](CC1CCCCC1)NC(=O)[C@H](Cc1cnc[nH]1)NC(=O)[C@H](CCCNC(=N)N)NC(=O)[C@H]1CCCN1C(=O)[C@H](CO)NC(=O)c1c[nH]cn1)C(=O)NC(C)(C)C(=O)N[C@H](C(=O)N[C@@H](CCCNC(=N)N)C(=O)N[C@@H](CCC(N)=O)C(=O)N[C@@H](CCCNC(=N)N)C(=O)N[C@@H](CC1CCCCC1)C(N)=O)[C@@H](C)O | 0.18 | 0.51 |  |  |  | 
2 | CC[C@](C)(NC(=O)[C@H](CC(C)C)NC(=O)[C@H](CC(N)=O)NC(=O)[C@H](CC1CCCCC1)NC(=O)[C@H](CC1CCCCC1)NC(=O)[C@H](Cc1cnc[nH]1)NC(=O)[C@H](CCCNC(=N)N)NC(=O)[C@H]1CCCN1C(=O)[C@H](CO)NC(C)=O)C(=O)N[C@H](C(=O)N[C@@H](CCCNC(=N)N)C(=O)N[C@@H](CCC(N)=O)C(=O)N[C@@H](CCCNC(=N)N)C(=O)N[C@@H](CC1CCCCC1)C(N)=O)[C@@H](C)O | 0.41 | 3.7 |  |  |  | 
3 | CC[C@@](C)(NC(=O)[C@H](CC1CCCCC1)NC(=O)[C@H](Cc1cnc[nH]1)NC(=O)[C@H](CCCNC(=N)N)NC(=O)[C@H]1CCCN1C(=O)[C@H](CO)NC(C)=O)C(=O)N[C@@H](CC(N)=O)C(=O)N[C@@H](CC(C)C)C(=O)NC(C)(C)C(=O)N[C@H](C(=O)N[C@@H](CCCNC(=N)N)C(=O)N[C@@H](CCC(N)=O)C(=O)N[C@@H](CCCNC(=N)N)C(=O)N[C@@H](CC1CCCCC1)C(N)=O)[C@@H](C)O | 0.5 | 3.3 |  |  |  | 
4 | CC(C)C[C@H](NC(=O)[C@H](CC(N)=O)NC(=O)[C@H](CC1CCCCC1)NC(=O)[C@H](CC1CCCCC1)NC(=O)[C@H](Cc1cnc[nH]1)NC(=O)[C@H](CCCNC(=N)N)NC(=O)[C@H]1CCCN1C(=O)[C@H](CO)NC(=O)CO)C(=O)NC(C)(C)C(=O)N[C@H](C(=O)N[C@@H](CCCNC(=N)N)C(=O)N[C@@H](CCC(N)=O)C(=O)N[C@@H](CCCNC(=N)N)C(=O)N[C@@H](CC1CCCCC1)C(N)=O)[C@@H](C)O | 0.59 | 1.2 |  |  |  | 
5 | CC[C@@](C)(NC(=O)[C@H](CO)NC(C)=O)C(=O)N[C@@H](CCCNC(=N)N)C(=O)N[C@@H](Cc1cnc[nH]1)C(=O)N[C@@H](CC1CCCCC1)C(=O)N[C@@H](CC1CCCCC1)C(=O)N[C@@H](CC(N)=O)C(=O)N[C@@H](CC(C)C)C(=O)NC(C)(C)C(=O)N[C@H](C(=O)N[C@@H](CCCNC(=N)N)C(=O)N[C@@H](CCC(N)=O)C(=O)N[C@@H](CCCNC(=N)N)C(=O)N[C@@H](CC1CCCCC1)C(N)=O)[C@@H](C)O | 0.28 | 2.4 |  |  |  | 
6 | CC[C@](C)(NC(=O)[C@H](CC1CCCCC1)NC(=O)[C@H](Cc1cnc[nH]1)NC(=O)[C@H](CCCNC(=N)N)NC(=O)[C@H]1CCCN1C(=O)[C@H](CO)NC(C)=O)C(=O)N[C@@H](CC(N)=O)C(=O)N[C@@H](CC(C)C)C(=O)NC(C)(C)C(=O)N[C@H](C(=O)N[C@@H](CCCNC(=N)N)C(=O)N[C@@H](CCC(N)=O)C(=O)N[C@@H](CCCNC(=N)N)C(=O)N[C@@H](CC1CCCCC1)C(N)=O)[C@@H](C)O | 0.18 | 0.45 |  |  |  | 
7 | CC(=O)N[C@@H](CO)C(=O)N1CCC[C@@H]1C(=O)NC(C)(C)C(=O)N[C@@H](Cc1ccncc1)C(=O)N[C@@H](CC1CCCCC1)C(=O)NC(C)(C)C(=O)N[C@@H](CC(N)=O)C(=O)N[C@@H](CCCCN)C(=O)NC(C)(C)C(=O)N[C@H](C(=O)N[C@@H](CCCNC(=N)N)C(=O)N[C@@H](CCC(N)=O)C(=O)N[C@@H](CCCNC(=N)N)C(=O)N[C@@H](CC1CCCCC1)C(N)=O)[C@@H](C)O | 0.21 | 4.5 |  |  |  | 50
8 | CC[C@](C)(NC(=O)[C@H]1CCCN1C(=O)[C@H](CO)NC(C)=O)C(=O)N[C@@H](Cc1ccncc1)C(=O)N[C@@H](CC1CCCCC1)C(=O)N[C@@H](CC(C)(C)C)C(=O)N[C@@H](CC(N)=O)C(=O)N[C@@H](CCCCN)C(=O)NC(C)(C)C(=O)N[C@H](C(=O)N[C@@H](CCCNC(=N)N)C(=O)N[C@@H](CCC(N)=O)C(=O)N[C@@H](CCCNC(=N)N)C(=O)N[C@@H](CC1CCCCC1)C(N)=O)[C@@H](C)O | 0.2 | 0.4 | 1 | 12 | 52 | 
9 | CC[C@](C)(NC(=O)[C@H]1C[C@H](O)CN1C(=O)[C@H](CO)NC(C)=O)C(=O)N[C@@H](Cc1ccncc1)C(=O)N[C@@H](CC1CCCCC1)C(=O)NC(C)(C)C(=O)N[C@@H](CC(N)=O)C(=O)N[C@@H](CCCCN)C(=O)NC(C)(C)C(=O)N[C@H](C(=O)N[C@@H](CCCNC(=N)N)C(=O)N[C@@H](CCC(N)=O)C(=O)N[C@@H](CCCNC(=N)N)C(=O)N[C@@H](CC1CCCCC1)C(N)=O)[C@@H](C)O | 0.21 | 0.78 |  |  | 45 | 
10 | CC[C@](C)(NC(=O)[C@H](CO)NC(C)=O)C(=O)N[C@@H](CCCNC(=N)N)C(=O)N[C@@H](Cc1cnc[nH]1)C(=O)N[C@@H](CC1CCCCC1)C(=O)N[C@@H](CC1CCCCC1)C(=O)N[C@@H](CC(N)=O)C(=O)N[C@@H](CC(C)C)C(=O)NC(C)(C)C(=O)N[C@H](C(=O)N[C@@H](CCCNC(=N)N)C(=O)N[C@@H](CCC(N)=O)C(=O)N[C@@H](CCCNC(=N)N)C(=O)N[C@@H](CC1CCCCC1)C(N)=O)[C@@H](C)O | 0.35 | 1.8 |  |  |  | 

These reach a lower EC50 [1]. Values come first.

Row | EC50 [1] [nM] | IC50 [2] [nM] | Structure (SMILES) | inhibition in vivo at 0.3 mg/kg/day (Mus musculus [3]) [%] | inhibition in vivo at 0.3 mg/kg/day (Mus musculus [4]) [%] | inhibition in vivo at 0.03 mg/kg/day (Mus musculus [5]) [%] | inhibition in vivo at 0.1 mg/kg/day (Mus musculus [6]) [%]
11 | 0.13 | 0.58 | CC[C@](C)(NC(=O)[C@H]1C[C@H](O)CN1C(=O)[C@H](CO)NC(C)=O)C(=O)N[C@@H](Cc1ccncc1)C(=O)N[C@@H](CC1CCCCC1)C(=O)N[C@@H](CC(C)(C)C)C(=O)N[C@@H](CC(N)=O)C(=O)N[C@@H](CCCCN)C(=O)NC(C)(C)C(=O)N[C@H](C(=O)N[C@@H](CCCNC(=N)N)C(=O)N[C@@H](CCC(N)=O)C(=O)N[C@@H](CCCNC(=N)N)C(=O)N[C@@H](CC1CCCCC1)C(N)=O)[C@@H](C)O | 8 | 4 | 27 | 
12 | 0.13 | 0.44 | CC[C@](C)(NC(=O)[C@H](CC1CCCCC1)NC(=O)[C@H](Cc1ccncc1)NC(=O)[C@](C)(CC)NC(=O)[C@H]1C[C@H](O)CN1C(=O)[C@H](CO)NC(=O)c1c[nH]cn1)C(=O)N[C@@H](CC(N)=O)C(=O)N[C@@H](CCCCN)C(=O)NC(C)(C)C(=O)N[C@H](C(=O)N[C@@H](CCCNC(=N)N)C(=O)N[C@@H](CCC(N)=O)C(=O)N[C@@H](CCCNC(=N)N)C(=O)N[C@@H](CC1CCCCC1)C(N)=O)[C@@H](C)O |  |  | 49 | 
13 | 0.13 | 0.41 | CC(=O)N[C@@H](CO)C(=O)NC(C)(C)C(=O)N[C@@H](CCCNC(=N)N)C(=O)N[C@@H](Cc1ccncc1)C(=O)N[C@@H](CC1CCCCC1)C(=O)NC(C)(C)C(=O)N[C@@H](CC(N)=O)C(=O)N[C@@H](CCCCN)C(=O)NC(C)(C)C(=O)N[C@H](C(=O)N[C@@H](CCCNC(=N)N)C(=O)N[C@@H](CCC(N)=O)C(=O)N[C@@H](CCCNC(=N)N)C(=O)N[C@@H](CC1CCCCC1)C(N)=O)[C@@H](C)O (Ac-S[Aib]R[4Pal][Cha][Aib]NK[Aib]TRQR[Cha]-NH2) |  |  | 36 | 95
14 | 0.11 | 0.27 | CC[C@@](C)(NC(=O)[C@H](CCCCN)NC(=O)[C@H](CC(N)=O)NC(=O)C(C)(C)NC(=O)[C@H](CC1CCCCC1)NC(=O)[C@H](Cc1ccncc1)NC(=O)[C@H](CCCNC(=N)N)NC(=O)[C@H]1CCCN1C(=O)[C@H](CO)NC(C)=O)C(=O)N[C@H](C(=O)N[C@@H](CCCNC(=N)N)C(=O)N[C@@H](CCC(N)=O)C(=O)N[C@@H](CCCNC(=N)N)C(=O)N[C@@H](CC1CCCCC1)C(N)=O)[C@@H](C)O |  |  | 34 | 86
15 | 0.17 | 0.91 | CC[C@](C)(NC(=O)[C@H]1C[C@H](O)CN1C(=O)[C@H](CO)NC(=O)c1c[nH]cn1)C(=O)N[C@@H](Cc1ccncc1)C(=O)N[C@@H](CC1CCCCC1)C(=O)NC(C)(C)C(=O)N[C@@H](CC(N)=O)C(=O)N[C@@H](CCCCN)C(=O)NC(C)(C)C(=O)N[C@H](C(=O)N[C@@H](CCCNC(=N)N)C(=O)N[C@@H](CCC(N)=O)C(=O)N[C@@H](CCCNC(=N)N)C(=O)N[C@@H](CC1CCCCC1)C(N)=O)[C@@H](C)O |  |  |  | 
16 | 0.17 | 0.67 | CC[C@@](C)(NC(=O)[C@H](CC(C)C)NC(=O)[C@H](CC(N)=O)NC(=O)[C@H](CC1CCCCC1)NC(=O)[C@H](CC1CCCCC1)NC(=O)[C@H](Cc1cnc[nH]1)NC(=O)[C@H](CCCNC(=N)N)NC(=O)[C@H]1CCCN1C(=O)[C@H](CO)NC(C)=O)C(=O)N[C@H](C(=O)N[C@@H](CCCNC(=N)N)C(=O)N[C@@H](CCC(N)=O)C(=O)N[C@@H](CCCNC(=N)N)C(=O)N[C@@H](CC1CCCCC1)C(N)=O)[C@@H](C)O |  |  |  | 
17 | 0.16 | 0.57 | CC[C@](C)(NC(=O)[C@H](CC1CCCCC1)NC(=O)[C@H](Cc1ccncc1)NC(=O)[C@](C)(CC)NC(=O)[C@H]1CCCN1C(=O)[C@H](CO)NC(C)=O)C(=O)N[C@@H](CC(N)=O)C(=O)N[C@@H](CCCCN)C(=O)NC(C)(C)C(=O)N[C@H](C(=O)N[C@@H](CCCNC(=N)N)C(=O)N[C@@H](CCC(N)=O)C(=O)N[C@@H](CCCNC(=N)N)C(=O)N[C@@H](CC1CCCCC1)C(N)=O)[C@@H](C)O | 16 | 23 | 36 | 
